Results from patent US10988474B2, “Compounds acting at multiple prostaglandin receptors giving a general anti-inflammatory response” (ALLERGAN, INC., priority 2011, dated 2021).

Legend:
Assay type in all cases: cell-based
[1] = molecular target: T1, human prostanoid TP receptor (Homo sapiens, UniProt P21731); assay: FLIPR Ca2+ signaling PG antagonist assay, TP stable cell line; conditions: HEK-293 EBNA cells, human recombinant TP, no exogenous G-protein; standard agonist U-46619
T1 construct: expressed in transfected cells
T1 sequence (P21731 1-343): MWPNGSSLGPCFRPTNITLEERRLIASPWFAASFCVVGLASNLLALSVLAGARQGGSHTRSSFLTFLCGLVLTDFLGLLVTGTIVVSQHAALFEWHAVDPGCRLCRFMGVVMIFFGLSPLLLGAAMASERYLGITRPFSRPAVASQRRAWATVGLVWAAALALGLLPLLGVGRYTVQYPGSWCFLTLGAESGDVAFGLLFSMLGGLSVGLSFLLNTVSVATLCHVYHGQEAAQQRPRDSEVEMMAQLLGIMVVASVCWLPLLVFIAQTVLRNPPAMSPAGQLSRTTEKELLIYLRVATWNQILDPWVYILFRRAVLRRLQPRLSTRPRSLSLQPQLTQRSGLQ
Experimental: (§1) The above compounds were tested for PG antagonist activity as follows using human recombinant prostanoid receptor (DP1, EP1-4, FP, IP and TP) stable cell lines: In order to measure the response of Gs and Gi coupled prostanoid receptors as a Ca^2+ signal, chimeric G protein cDNAs were used. Stable cell lines over-expressing human prostanoid DP1, EP1-4, FP, IP, and TP receptors were established as follows:
(§2) Briefly, human prostanoid DP1, EP2, and EP4 receptor cDNAs were co-transfected with chimeric Gqs cDNA containing a haemagglutanin (HA) epitope; human prostanoid EP3 receptors were co-transfected with chimeric Gqi-HA; human EP1, FP, IP, and TP receptor cDNAs were expressed with no exogenous G-proteins. Gqs and Gqi chimeric cDNAs (Molecular Devices, Sunnyvale, Calif., U.S.A.), as well as cDNAs of prostanoid receptors, were cloned into a pCEP4 vector with a hygromycin B selection marker. Transfection into HEK-293 EBNA (Epstein-Barr virus nuclear antigen) cells was achieved by the FuGENE 6 transfection Reagent (Roche Applied Science, Indianapolis, Ind., USA). Stable transfectants were selected according to hygromycin resistance. Because Gqs and Gqi contained an HA epitope, G-protein expression was detected by Western blotting analysis using anti-mouse HA monoclonal antibody and horseradish peroxidase (HRP)-conjugated secondary antibody, while functional expression of prostanoid receptors was detected by FLIPR screening (Matias et al., 2004). These stable cell lines were validated using previously published antagonists at 10 μM against serial dilutions of standard agonists by FLIPR functional assays for Ca^2+ Signaling (as described below).
(§3) Ca^2+ signaling studies were performed using a FLIPR TETRA system (Molecular Devices, Sunnyvale, Calif., USA) in the 384-format. This is a high-throughput instrument for cell-based assays to monitor Ca^2+ signaling associated with GPCRs and ion channels. Cells were seeded at a density of 5×10^4 cells/well in BioCoat poly-D-lysine coated, black wall, clear bottom 384-well plates (BD Biosciences, Franklin lakes, NJ, USA) and allowed to attach overnight in an incubator at 37° C. The cells were then washed twice with HBSS-HEPES buffer (Hanks' balanced salt solution without bicarbonate and phenol red, 20 mM HEPES, pH 7.4) using an ELx405 Select CW Microplate Washer (BioTek, Winooski, Vt., USA). After 60 min of dye-loading in the dark using the Ca^2+-sensitive dye Fluo-4AM (Invitrogen, Carlsbad, Calif., USA), at a final concentration of 2×10^−6M, the plates were washed 4 times with HBSS-HEPES buffer to remove excess dye and leaving 50 μl of buffer in each well. The plates were then placed in the FLIPR TETRA instrument and allowed to equilibrate at 37° C. Compounds were added in a 25 μl volume to each well to give final concentrations of 0.1 μM, 0.3 μM, 1 μM, 3 μM, 10 μM, and 30 μM; or 0.067 μM, 0.1 μM, 0.2 μM, 0.3 μM, 0.67 μM, and 1 μM for cells over-expressing TP receptors. After 4.5 minutes, a 7-point serial dilution of the standard agonist for the corresponding receptor, in a 25 μl volume was injected at the final concentrations from 10^−11M to 10^−5M in 10-fold serial dilution increments for cells expressing human recombinant DP1, EP1, EP2, EP3, EP4, FP, and IP receptors. The dose range for the standard agonist for human recombinant TP receptors was from 10^−12M to 10^−6M. HBSS-HEPES buffer was used as the negative control for the standard agonists. Cells were excited with LED (light emitting diode) excitation at 470-495 nm and emission was measured through an emission filter at 515-575 nm. Assay plates were read for 3.5 minutes using the FLIPR^TETRA. The peak increase in fluorescence intensity was recorded for each well. On each plate, negative controls, dose response of positive controls, and co-treatments of antagonist-agonist for each dose were in triplicates. Standard agonists were as follows: DP=BW 245C, EP1-EP4=PGE2, FP=17-phenyl-PGF2α, IP=Cicaprost, and TP=U-46619. […]

[2] = molecular target: T2, human prostanoid IP receptor (Homo sapiens, UniProt P43119); assay: FLIPR Ca2+ signaling PG antagonist assay, IP stable cell line; conditions: HEK-293 EBNA cells, human recombinant IP, no exogenous G-protein; standard agonist Cicaprost
T2 construct: expressed in transfected cells
T2 sequence (P43119 whole entry): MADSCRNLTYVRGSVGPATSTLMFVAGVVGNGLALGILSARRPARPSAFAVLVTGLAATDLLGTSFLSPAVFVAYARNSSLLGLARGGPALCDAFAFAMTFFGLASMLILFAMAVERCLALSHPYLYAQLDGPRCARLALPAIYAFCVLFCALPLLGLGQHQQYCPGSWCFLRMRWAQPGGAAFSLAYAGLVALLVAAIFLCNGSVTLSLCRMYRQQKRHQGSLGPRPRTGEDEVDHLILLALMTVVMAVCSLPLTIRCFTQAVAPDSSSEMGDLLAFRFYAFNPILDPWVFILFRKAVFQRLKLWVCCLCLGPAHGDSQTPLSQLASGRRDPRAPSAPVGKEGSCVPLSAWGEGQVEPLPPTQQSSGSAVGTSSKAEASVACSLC
Experimental: as §1, §2, §3

[3] = molecular target: T3, human prostanoid EP4 receptor (Homo sapiens, UniProt P35408); assay: FLIPR Ca2+ signaling PG antagonist assay, EP4 stable cell line; conditions: HEK-293 EBNA cells, human recombinant EP4 with chimeric Gqs; standard agonist PGE2
T3 construct: expressed in transfected cells
T3 sequence (P35408 whole entry): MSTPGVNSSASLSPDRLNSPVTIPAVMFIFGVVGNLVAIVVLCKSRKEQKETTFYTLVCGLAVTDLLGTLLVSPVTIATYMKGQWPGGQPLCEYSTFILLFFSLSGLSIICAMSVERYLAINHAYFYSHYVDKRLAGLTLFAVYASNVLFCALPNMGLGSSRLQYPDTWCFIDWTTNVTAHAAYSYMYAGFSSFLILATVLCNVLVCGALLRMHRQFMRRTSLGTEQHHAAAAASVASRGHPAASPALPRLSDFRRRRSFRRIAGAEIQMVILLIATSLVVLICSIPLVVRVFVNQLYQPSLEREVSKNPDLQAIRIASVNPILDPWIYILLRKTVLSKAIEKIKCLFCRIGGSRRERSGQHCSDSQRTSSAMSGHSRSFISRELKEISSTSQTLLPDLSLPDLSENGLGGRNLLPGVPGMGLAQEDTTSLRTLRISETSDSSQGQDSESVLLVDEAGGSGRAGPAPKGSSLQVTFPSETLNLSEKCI
Experimental: as §1, §2, §3

[4] = molecular target: T4, human prostanoid EP2 receptor (Homo sapiens, UniProt P43116); assay: FLIPR Ca2+ signaling PG antagonist assay, EP2 stable cell line; conditions: HEK-293 EBNA cells, human recombinant EP2 with chimeric Gqs; standard agonist PGE2
T4 construct: expressed in transfected cells
T4 sequence (P43116 whole entry): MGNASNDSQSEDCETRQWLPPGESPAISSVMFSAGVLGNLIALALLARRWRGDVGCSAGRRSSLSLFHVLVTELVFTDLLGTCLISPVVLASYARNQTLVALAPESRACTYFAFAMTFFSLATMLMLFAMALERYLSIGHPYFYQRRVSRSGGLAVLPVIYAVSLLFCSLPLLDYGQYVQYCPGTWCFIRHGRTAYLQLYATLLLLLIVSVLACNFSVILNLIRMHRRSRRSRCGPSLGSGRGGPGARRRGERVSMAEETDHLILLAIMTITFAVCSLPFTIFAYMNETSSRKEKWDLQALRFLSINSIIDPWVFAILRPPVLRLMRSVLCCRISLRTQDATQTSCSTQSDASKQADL
Experimental: as §1, §2, §3

[5] = molecular target: T5, human prostanoid EP3 receptor (Homo sapiens, UniProt P43115); assay: FLIPR Ca2+ signaling PG antagonist assay, EP3 stable cell line; conditions: HEK-293 EBNA cells, human recombinant EP3 with chimeric Gqi; standard agonist PGE2
T5 construct: expressed in transfected cells
T5 sequence (P43115 1-390): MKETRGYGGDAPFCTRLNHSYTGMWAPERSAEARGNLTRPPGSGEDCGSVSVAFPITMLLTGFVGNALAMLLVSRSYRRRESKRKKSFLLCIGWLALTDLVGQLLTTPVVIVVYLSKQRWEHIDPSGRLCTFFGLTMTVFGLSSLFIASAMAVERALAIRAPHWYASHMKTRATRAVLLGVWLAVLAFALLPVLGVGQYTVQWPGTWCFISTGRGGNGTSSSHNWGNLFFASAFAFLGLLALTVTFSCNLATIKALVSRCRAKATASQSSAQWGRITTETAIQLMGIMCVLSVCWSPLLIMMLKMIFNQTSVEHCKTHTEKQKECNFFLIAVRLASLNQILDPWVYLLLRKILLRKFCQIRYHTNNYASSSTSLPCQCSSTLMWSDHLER
Experimental: as §1, §2, §3

Row | Compound | Kb [1] [nM] | Kb [2] [nM] | Kb [3] [nM] | Kb [4] [nM] | Kb [5] [nM] | TP (Kb, PG antagonist activity) [1]
1 | CCC(CC)COc1ccc(Cl)cc1Cn1ccc2cc(C(=O)O)ccc21 [Example 1, 1-[5-Chloro-2-(2-Ethyl-Butoxy)-Benzyl]-1H-Indole-5-Carboxylic Acid] | 150 | 2200 | 70 | 8700 | 5200 | –
2 | CCC(CC)COc1ccc(Cl)cc1Cn1ncc2cc(C(=O)O)ccc21 [Example 2, 1-[5-Chloro-2-(2-Ethyl-Butoxy)-Benzyl]-1H-Indazole-5-Carboxylic ACID] | 110 | 1100 | 20 | 2900 | 1100 | –
3 | CC(C)COc1ccc(Br)cc1Cn1ncc2cc(C(=O)O)ccc21 [Example 4] | 2 | 800 | 25 | 1800 | 1500 | –
4 | CCC(CC)COc1ccc(Cl)cc1Cn1ncc2ccc(C(=O)O)cc21 [Example 6] | 150 | ≥ 10000 | ≥ 10000 | ≥ 10000 | ≥ 10000 | –
5 | CC(C)COc1ccc(Br)cc1Cn1ncc2c(C(=O)O)cccc21 [Example 7, 1-(5-Bromo-2-Isobutoxy-Benzyl)-1H-Indazole-4-Carboxylic Acid] | 20 | 1300 | 1800 | 4400 | ≥ 10000 | –
6 | O=C(O)c1ccc2c(cnn2Cc2cc(Cl)ccc2OCc2ccccc2)c1 [Example 8, 1-(2-Benzyloxy-5-Chloro-Benzyl)-1H-Indazole-5-Carboxylic Acid] | 2100 | 2800 | 1300 | 5000 | ≥ 10000 | –
7 | O=C(O)c1ccc2c(cnn2Cc2cc(Cl)ccc2OCc2ccc(Cl)cc2)c1 [Example 9, 1-[5-Chloro-2-(4-Chloro-Benzyloxy)-Benzyl]-1H-Indazole-5-Carboxylic Acid] | – | 1350 | 3000 | 3200 | 4900 | PAgonist
8 | O=C(O)c1ccc2c(cnn2Cc2cc(Cl)ccc2OCC2CCCC2)c1 [Example 10, 1-(5-Chloro-2-Cyclopentylmethoxy-Benzyl)-1H-Indazole-5-Carboxylic Acid] | 20 | 400 | 20 | 500 | 1100 | –
9 | O=C(O)c1ccc2c(cnn2Cc2cc(Cl)ccc2OCC2CC2)c1 [Example 11, 1-(5-Chloro-2-Cyclopropylmethoxy-Benzyl)-1H-Indazole-5-Carboxylic Acid] | 120 | 5500 | 110 | 2000 | 6500 | –
10 | O=C(O)c1ccc2c(cnn2Cc2cc(Br)ccc2OCc2ccccc2)c1 [Example 12, 1-(2-Benzyloxy-5-Bromo-Benzyl)-1H-Indazole-5-Carboxylic Acid] | 44 | 5000 | 1150 | 7900 | ≥ 10000 | –
11 | O=C(O)c1ccc2c(cnn2Cc2cc(Br)ccc2OCc2ccc(Cl)cc2)c1 [Example 13, 1-[5-Bromo-2-(4-Chloro-Benzyloxy)-Benzyl]-1H-Indazole-5-Carboxylic Acid] | 900 | 600 | 2700 | 1900 | 8500 | –
12 | O=C(O)c1ccc2c(cnn2Cc2cc(Br)ccc2OCC2CCCC2)c1 [Example 14, 1-(5-Bromo-2-Cyclopentylmethoxy-Benzyl)-1H-Indazole-5-Carboxylic Acid] | 600 | 340 | 15 | 400 | 1500 | –
13 | O=C(O)c1ccc2c(cnn2Cc2cc(Br)ccc2OCC2CC2)c1 [Example 15, 1-(5-Bromo-2-Cyclopropylmethoxy-Benzyl)-1H-Indazole-5-Carboxylic Acid] | 20 | 1800 | 200 | 3300 | 8400 | –
14 | CC(C)COc1ccc(Cl)cc1Cn1cc2cc(C(=O)O)ccc2n1 [Example 16, 2-(5-Chloro-2-Isobutoxy-Benzyl)-2H-Indazole-5-Carboxylic Acid] | 400 | 6600 | 600 | ≥ 10000 | 4000 | –
15 | CC(C)COc1ccc(Br)cc1Cn1cc2cc(C(=O)O)ccc2n1 [Example 17, 2-(5-Bromo-2-Isobutoxy-Benzyl)-2H-Indazole-5-Carboxylic Acid] | 3300 | ≥ 10000 | 600 | ≥ 10000 | ≥ 10000 | –
16 | CC(C)COc1ccc(C(F)(F)F)cc1Cn1ncc2cc(C(=O)O)ccc21 [Example 18] | 4 | 6500 | 60 | ≥ 10000 | 4000 | –
17 | CC1(COc2ccc(Br)cc2Cn2ncc3cc(C(=O)O)ccc32)CC1 [Example 19] | 50 | 4600 | 14 | 8800 | 3600 | –
18 | CC(C)COc1ccc(OC(F)(F)F)cc1Cn1ncc2cc(C(=O)O)ccc21 [Example 20, 1-(2-Isobutoxy-5-Trifluoromethoxy-Benzyl)-1H-Indazole-5-Carboxylic Acid] | 50 | 2700 | 30 | ≥ 10000 | ≥ 10000 | –
19 | Cc1nn(Cc2cc(Br)ccc2OCC(C)C)c2ccc(C(=O)O)cc12 [Example 21, 1-(5-Bromo-2-Isobutoxy-Benzyl)-3-Methyl-1H-Indazole-5-Carboxylic Acid] | 13 | 900 | 70 | 3500 | 2200 | –
